Among the data in PubChem BioAssay (NCI) are GI50 and TGI values, retold here.

Test systems include MCF7 breast; SW-620 colon; SNB-75 CNS; SK-OV-3 ovarian; SF-295 CNS; HOP-92 NSCLC; NCI-H522 lung; SN12C renal; 786-0 renal; HL-60(TB) leukemia.
What all share (test): NCI tumour cell line growth inhibition, 48 h

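In this assay, cells in 96-well plates receive the compound at five concentrations for 48 hours. Endpoints are linearly interpolated between the surrounding concentrations. Here, GI50 denotes the concentration required for 50% inhibition of growth. TGI denotes the concentration required for complete inhibition of growth.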

Consider `O=C(/C=C\c1ccc2ccccc2n1)c1cc(Cl)ccc1O`, for which the GI50 with MCF7 breast is 6.48 µM; in the assay on SW-620 colon it was 1.84 µM; in the assay on SNB-75 CNS it was 6.58 µM; in the assay on SK-OV-3 ovarian it was 61.4 µM; in the assay with SF-295 CNS it was 10.3 µM; in the assay on HOP-92 NSCLC, 1.82 µM. Moreover, the GI50 in the assay on NCI-H522 lung is 2.88 µM; in the assay on SN12C renal it was 9.58 µM; with 786-0 renal, 4.28 µM; with HL-60(TB) leukemia it was 3.32 µM. Besides, the TGI with MCF7 breast is above 100 µM; in the assay on SW-620 colon, 3.84 µM; in the assay on SNB-75 CNS, 21 µM; with SK-OV-3 ovarian, above 100 µM; with SF-295 CNS, 44.2 µM; in the assay with HOP-92 NSCLC, 9.35 µM. In addition, the TGI stood at 16 µM in the assay with NCI-H522 lung, 24.4 µM with SN12C renal, 14.6 µM with 786-0 renal and 11.3 µM in the assay with HL-60(TB) leukemia.
On to `N=C(N)c1ccc(-c2ccc(-c3ccc(F)cc3)o2)o1`, for which the GI50 in the assay with MCF7 breast was 0.685 µM; in the assay with SW-620 colon, 0.943 µM; in the assay on SNB-75 CNS, 1.55 µM; with SK-OV-3 ovarian, 2.32 µM; in the assay on SF-295 CNS it was 1.51 µM; with HOP-92 NSCLC it was 1.21 µM. Moreover, the GI50 is 1.36 µM in the assay on NCI-H522 lung, 1.8 µM in the assay on SN12C renal, 1.66 µM in the assay with 786-0 renal and 1.8 µM with HL-60(TB) leukemia. Moreover, the TGI stood at 2.38 µM with MCF7 breast; 2.38 µM in the assay on SW-620 colon; 3.49 µM in the assay with SNB-75 CNS; 7.14 µM in the assay on SK-OV-3 ovarian; 3.05 µM with SF-295 CNS; 2.95 µM with HOP-92 NSCLC. In addition, the TGI stood at 2.9 µM in the assay on NCI-H522 lung, 3.65 µM in the assay with SN12C renal, 3.49 µM with 786-0 renal and 4.4 µM with HL-60(TB) leukemia.
